#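 96-well plates; 48 h exposure; 5 concentrations. Endpoints by linear interpolation between flanking doses. Not reached: highest tested concentration assigned. TGI: total growth inhibition.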
# Columns and labels:
# Assay in all cases: growth of human tumour cells (NCI), 48 h
# NCI-H23 lung = test system: NCI-H23 lung
# SN12C renal = test system: SN12C renal
# COLO 205 colon = test system: COLO 205 colon
# SR leukemia = test system: SR leukemia
# HOP-62 NSCLC = test system: HOP-62 NSCLC
# 786-0 renal = test system: 786-0 renal
# M14 melanoma = test system: M14 melanoma
# ACHN renal = test system: ACHN renal
# HT29 colon = test system: HT29 colon
# HOP-92 NSCLC = test system: HOP-92 NSCLC
# SF-295 CNS = test system: SF-295 CNS
# UACC-257 melanoma = test system: UACC-257 melanoma
# TK-10 renal = test system: TK-10 renal
# UACC-62 melanoma = test system: UACC-62 melanoma
# RPMI-8226 leukemia = test system: RPMI-8226 leukemia
# PC-3 prostate = test system: PC-3 prostate
# LOX IMVI melanoma = test system: LOX IMVI melanoma
# U251 CNS = test system: U251 CNS
# MOLT-4 leukemia = test system: MOLT-4 leukemia
# SF-539 CNS = test system: SF-539 CNS
# OVCAR-4 ovarian = test system: OVCAR-4 ovarian
# SK-MEL-28 melanoma = test system: SK-MEL-28 melanoma
# HS 578T breast = test system: HS 578T breast
# MDA-MB-231 breast = test system: MDA-MB-231 breast
# DU-145 prostate = test system: DU-145 prostate
# K-562 leukemia = test system: K-562 leukemia
# EKVX NSCLC = test system: EKVX NSCLC
# UO-31 renal = test system: UO-31 renal
# KM12 colon = test system: KM12 colon
# NCI-H460 lung = test system: NCI-H460 lung
# NCI/ADR-RES ovarian = test system: NCI/ADR-RES ovarian
# NCI-H226 lung = test system: NCI-H226 lung
# OVCAR-3 ovarian = test system: OVCAR-3 ovarian
# NCI-H522 lung = test system: NCI-H522 lung
# SNB-19 CNS = test system: SNB-19 CNS
# BT-549 breast = test system: BT-549 breast
# SW-620 colon = test system: SW-620 colon
# SNB-75 CNS = test system: SNB-75 CNS
# CCRF-CEM leukemia = test system: CCRF-CEM leukemia
# T-47D breast = test system: T-47D breast
# MDA-MB-435 = test system: MDA-MB-435
# HCT-116 colon = test system: HCT-116 colon
# MDA-N = test system: MDA-N
# SF-268 CNS = test system: SF-268 CNS
# MCF7 breast = test system: MCF7 breast
# IGROV1 ovarian = test system: IGROV1 ovarian
# A498 renal = test system: A498 renal
# SK-OV-3 ovarian = test system: SK-OV-3 ovarian
# OVCAR-5 ovarian = test system: OVCAR-5 ovarian
# SK-MEL-5 melanoma = test system: SK-MEL-5 melanoma
# CAKI-1 renal = test system: CAKI-1 renal
# OVCAR-8 ovarian = test system: OVCAR-8 ovarian
# RXF 393 renal = test system: RXF 393 renal
# HL-60(TB) leukemia = test system: HL-60(TB) leukemia
# A549 NSCLC = test system: A549 NSCLC
# SK-MEL-2 melanoma = test system: SK-MEL-2 melanoma
# HCT-15 colon = test system: HCT-15 colon
# MALME-3M melanoma = test system: MALME-3M melanoma
compound,measurement,setting,value
CC(=O)c1c(C(F)(F)F)n([O-])c2cc(Cl)c(Cl)cc2[n+]1=O,TGI,NCI-H23 lung,2710 nM
same,TGI,SN12C renal,2690 nM
same,TGI,COLO 205 colon,2110 nM
same,TGI,SR leukemia,36.1 nM
same,TGI,HOP-62 NSCLC,887 nM
same,TGI,786-0 renal,380 nM
same,TGI,M14 melanoma,2610 nM
same,TGI,ACHN renal,1920 nM
same,TGI,HT29 colon,2540 nM
same,TGI,HOP-92 NSCLC,880 nM
same,TGI,SF-295 CNS,2270 nM
same,TGI,UACC-257 melanoma,2110 nM
same,TGI,TK-10 renal,1090 nM
same,TGI,UACC-62 melanoma,2580 nM
same,TGI,RPMI-8226 leukemia,353 nM
same,TGI,PC-3 prostate,3090 nM
same,TGI,LOX IMVI melanoma,489 nM
same,TGI,U251 CNS,2630 nM
same,TGI,MOLT-4 leukemia,544 nM
same,TGI,SF-539 CNS,2460 nM
same,TGI,OVCAR-4 ovarian,2730 nM
same,TGI,SK-MEL-28 melanoma,3870 nM
same,TGI,HS 578T breast,2380 nM
same,TGI,MDA-MB-231 breast,2990 nM
same,TGI,DU-145 prostate,3370 nM
same,TGI,K-562 leukemia,3420 nM
same,TGI,EKVX NSCLC,2890 nM
same,TGI,UO-31 renal,1590 nM
same,TGI,KM12 colon,403 nM
same,TGI,NCI-H460 lung,852 nM
same,TGI,NCI/ADR-RES ovarian,4850 nM
same,TGI,NCI-H226 lung,3080 nM
same,TGI,OVCAR-3 ovarian,3190 nM
same,TGI,NCI-H522 lung,368 nM
same,TGI,SNB-19 CNS,2270 nM
same,TGI,BT-549 breast,800 nM
same,TGI,SW-620 colon,1340 nM
same,TGI,SNB-75 CNS,2250 nM
same,TGI,CCRF-CEM leukemia,563 nM
same,TGI,T-47D breast,2960 nM
same,TGI,MDA-MB-435,2670 nM
same,TGI,HCT-116 colon,1610 nM
same,TGI,MDA-N,2410 nM
same,TGI,SF-268 CNS,2530 nM
same,TGI,MCF7 breast,1520 nM
same,TGI,IGROV1 ovarian,498 nM
same,TGI,A498 renal,2500 nM
same,TGI,SK-OV-3 ovarian,2900 nM
same,TGI,OVCAR-5 ovarian,3290 nM
same,TGI,SK-MEL-5 melanoma,2060 nM
same,TGI,CAKI-1 renal,3330 nM
same,TGI,OVCAR-8 ovarian,1840 nM
same,TGI,RXF 393 renal,2510 nM
same,TGI,HL-60(TB) leukemia,1430 nM
same,TGI,A549 NSCLC,1910 nM
same,TGI,SK-MEL-2 melanoma,2720 nM
same,TGI,HCT-15 colon,759 nM
same,TGI,MALME-3M melanoma,2470 nM
